Source: patent US11865098B1, “Methods and compositions for treating excessive sleepiness” (Axsome Malta Ltd., priority 2017, dated 2024)

Test system: patients with narcolepsy type 1 or type 2
Assay: Safety and tolerability (TEAEs, discontinuations), 12-week phase 3 study in narcolepsy
Format: in vivo, human
Settings: for Anxiety, incidence % / Anxiety, incidence n / Any TEAE, incidence % / Any TEAE, incidence n / Constipation, incidence % / Constipation, incidence n / Decreased appetite, incidence % / Decreased appetite, incidence n / Diarrhea, incidence % / Diarrhea, incidence n / Discontinuations due to TEAEs, incidence % / Discontinuations due to TEAEs, incidence n / Dizziness, incidence % / Dizziness, incidence n / Dry mouth, incidence % / Dry mouth, incidence n / Dyspepsia, incidence % / Dyspepsia, incidence n / Fatigue, incidence n / Headache, incidence % / Headache, incidence n / Heart rate increased, incidence n / Influenza, incidence % / Influenza, incidence n / Insomnia, incidence % / Insomnia, incidence n / Nasopharyngitis, incidence % / Nasopharyngitis, incidence n / Nausea, incidence % / Nausea, incidence n / Serious TEAEs, incidence n / Upper respiratory tract infection, incidence % / Upper respiratory tract infection, incidence n / Weight Increased, incidence % / Weight Increased, incidence n / Weight decreased, incidence % / Weight decreased, incidence n / Fatigue, incidence % / Serious TEAEs, incidence % / Heart rate increased, incidence %: safety population
Experimental: The study was a 12-week, double-blind, randomized, placebo-controlled, parallel-group study. Patients were randomized (1:1:1:1) to receive placebo or APC 75, 150, or 300 mg; randomization was stratified by the presence or absence of cataplexy.
Co-primary endpoints were change from baseline to week 12 in MWT mean sleep latency and ESS score. The key secondary endpoint was the percentage of patients who reported improvement on the Patient Global Impression of Change (PGI-C) (Guy, ECDEU assessment manual for psychopharmacology, revised. US Department of Health, Education, and Welfare publication (ADM 76-338). Rockville, MD: National Institute of Mental Health; 1976) at week 12. Other secondary and exploratory endpoints included changes on function and quality-of-life and changes in the number of cataplexy attacks per week. Safety evaluation included adverse events, laboratory tests, and vital signs.

NC(=O)OC[C@H](N)Cc1ccccc1 [JZP-110, (R)-2-amino-3-phenylpropyl carbamate]
Discontinuation rate (75 mg): 16.9% | Anxiety, incidence % (75 mg): (1.7) % | Anxiety, incidence n (75 mg): 1 | Any TEAE, incidence % (75 mg): (57.6) % | Any TEAE, incidence n (75 mg): 34 | Constipation, incidence % (75 mg): (5.1) % | Constipation, incidence n (75 mg): 3 | Decreased appetite, incidence % (75 mg): (8.5) % | Decreased appetite, incidence n (75 mg): 5 | Diarrhea, incidence % (75 mg): (3.4) % | Diarrhea, incidence n (75 mg): 2 | Discontinuations due to TEAEs, incidence % (75 mg): (1.7) % | Discontinuations due to TEAEs, incidence n (75 mg): 1 | Dizziness, incidence % (75 mg): (3.4) % | Dizziness, incidence n (75 mg): 2 | Dry mouth, incidence % (75 mg): (5.1) % | Dry mouth, incidence n (75 mg): 3 | Dyspepsia, incidence % (75 mg): (1.7) % | Dyspepsia, incidence n (75 mg): 1 | Fatigue, incidence n (75 mg): 0 | Headache, incidence % (75 mg): (10.2) % | Headache, incidence n (75 mg): 6 | Heart rate increased, incidence n (75 mg): 0 | Influenza, incidence % (75 mg): (3.4) % | Influenza, incidence n (75 mg): 2 | Insomnia, incidence % (75 mg): (3.4) % | Insomnia, incidence n (75 mg): 2 | Nasopharyngitis, incidence % (75 mg): (8.5) % | Nasopharyngitis, incidence n (75 mg): 5 | Nausea, incidence % (75 mg): (5.1) % | Nausea, incidence n (75 mg): 3 | Serious TEAEs, incidence n (75 mg): 0 | Upper respiratory tract infection, incidence % (75 mg): (1.7) % | Upper respiratory tract infection, incidence n (75 mg): 1 | Weight Increased, incidence % (75 mg): (3.4) % | Weight Increased, incidence n (75 mg): 2 | Weight decreased, incidence % (75 mg): (1.7) % | Weight decreased, incidence n (75 mg): 1 | Discontinuation rate (150 mg): 13.6% | Serious TEAEs (events) (150 mg, one patient, deemed not related by the investigator): 2 serious TEAEs of non-cardiac chest pain and anxiety | Anxiety, incidence % (150 mg): (5.1) % | Anxiety, incidence n (150 mg): 3 | Any TEAE, incidence % (150 mg): (79.7) % | Any TEAE, incidence n (150 mg): 47 | Constipation, incidence % (150 mg): (1.7) % | Constipation, incidence n (150 mg): 1 | Decreased appetite, incidence % (150 mg): (8.5) % | Decreased appetite, incidence n (150 mg): 5 | Diarrhea, incidence % (150 mg): (5.1) % | Diarrhea, incidence n (150 mg): 3 | Discontinuations due to TEAEs, incidence % (150 mg): (5.1) % | Discontinuations due to TEAEs, incidence n (150 mg): 3 | Dizziness, incidence % (150 mg): (1.7) % | Dizziness, incidence n (150 mg): 1 | Dry mouth, incidence % (150 mg): (6.8) % | Dry mouth, incidence n (150 mg): 4 | Dyspepsia, incidence % (150 mg): (3.4) % | Dyspepsia, incidence n (150 mg): 2 | Fatigue, incidence % (150 mg): (3.4) % | Fatigue, incidence n (150 mg): 2 | Headache, incidence % (150 mg): (23.7) % | Headache, incidence n (150 mg): 14 | Heart rate increased, incidence n (150 mg): 0 | Influenza, incidence % (150 mg): (1.7) % | Influenza, incidence n (150 mg): 1 | Insomnia, incidence n (150 mg): 0 | Nasopharyngitis, incidence % (150 mg): (13.6) % | Nasopharyngitis, incidence n (150 mg): 8 | Nausea, incidence % (150 mg): (10.2) % | Nausea, incidence n (150 mg): 6 | Serious TEAEs, incidence % (150 mg): (1.7) % | Serious TEAEs, incidence n (150 mg): 1 | Upper respiratory tract infection, incidence % (150 mg): (6.8) % | Upper respiratory tract infection, incidence n (150 mg): 4 | Weight Increased, incidence n (150 mg): 0 | Weight decreased, incidence % (150 mg): (1.7) % | Weight decreased, incidence n (150 mg): 1 | Discontinuation rate (300 mg): 27.1% | Discontinuation due to adverse events (300 mg, n=5): 8.5% | Anxiety, incidence % (300 mg): (8.5) % | Anxiety, incidence n (300 mg): 5 | Any TEAE, incidence % (300 mg): (67.8) % | Any TEAE, incidence n (300 mg): 40 | Constipation, incidence n (300 mg): 0 | Decreased appetite, incidence % (300 mg): (15.3) % | Decreased appetite, incidence n (300 mg): 9 | Diarrhea, incidence % (300 mg): (5.1) % | Diarrhea, incidence n (300 mg): 3 | Discontinuations due to TEAEs, incidence % (300 mg): (8.5) % | Discontinuations due to TEAEs, incidence n (300 mg): 5 | Dizziness, incidence % (300 mg): (5.1) % | Dizziness, incidence n (300 mg): 3 | Dry mouth, incidence % (300 mg): (10.2) % | Dry mouth, incidence n (300 mg): 6 | Dyspepsia, incidence % (300 mg): (5.1) % | Dyspepsia, incidence n (300 mg): 3 | Fatigue, incidence % (300 mg): (5.1) % | Fatigue, incidence n (300 mg): 3 | Headache, incidence % (300 mg): (30.5) % | Headache, incidence n (300 mg): 18 | Heart rate increased, incidence % (300 mg): (6.8) % | Heart rate increased, incidence n (300 mg): 4 | Influenza, incidence % (300 mg): (1.7) % | Influenza, incidence n (300 mg): 1 | Insomnia, incidence % (300 mg): (5.1) % | Insomnia, incidence n (300 mg): 3 | Nasopharyngitis, incidence % (300 mg): (5.1) % | Nasopharyngitis, incidence n (300 mg): 3 | Nausea, incidence % (300 mg): (16.9) % | Nausea, incidence n (300 mg): 10 | Serious TEAEs, incidence n (300 mg): 0 | Upper respiratory tract infection, incidence n (300 mg): 0 | Weight Increased, incidence % (300 mg): (1.7) % | Weight Increased, incidence n (300 mg): 1 | Weight decreased, incidence % (300 mg): (5.1) % | Weight decreased, incidence n (300 mg): 3 | Discontinuations due to TEAEs compared with placebo (150 and 300 mg groups): greater than placebo | Anxiety, incidence % (All JZP-110): (5.1) % | Anxiety, incidence n (All JZP-110): 9 | Any TEAE, incidence % (All JZP-110): (68.4) % | Any TEAE, incidence n (All JZP-110): 121 | Constipation, incidence % (All JZP-110): (2.3) % | Constipation, incidence n (All JZP-110): 4 | Decreased appetite, incidence % (All JZP-110): (10.7) % | Decreased appetite, incidence n (All JZP-110): 19 | Diarrhea, incidence % (All JZP-110): (4.5) % | Diarrhea, incidence n (All JZP-110): 8 | Discontinuations due to TEAEs, incidence % (All JZP-110): (5.1) % | Discontinuations due to TEAEs, incidence n (All JZP-110): 9 | Dizziness, incidence % (All JZP-110): (3.4) % | Dizziness, incidence n (All JZP-110): 6 | Dry mouth, incidence % (All JZP-110): (7.3) % | Dry mouth, incidence n (All JZP-110): 13 | Dyspepsia, incidence % (All JZP-110): (3.4) % | Dyspepsia, incidence n (All JZP-110): 6 | Fatigue, incidence % (All JZP-110): (2.8) % | Fatigue, incidence n (All JZP-110): 5 | Headache, incidence % (All JZP-110): (21.5) % | Headache, incidence n (All JZP-110): 38 | Heart rate increased, incidence % (All JZP-110): (2.3) % | Heart rate increased, incidence n (All JZP-110): 4 | Influenza, incidence % (All JZP-110): (2.3) % | Influenza, incidence n (All JZP-110): 4 | Insomnia, incidence % (All JZP-110): (2.8) % | Insomnia, incidence n (All JZP-110): 5 | Nasopharyngitis, incidence % (All JZP-110): (9.0) % | Nasopharyngitis, incidence n (All JZP-110): 16 | Nausea, incidence % (All JZP-110): (10.7) % | Nausea, incidence n (All JZP-110): 19 | Serious TEAEs, incidence % (All JZP-110): (0.6) % | Serious TEAEs, incidence n (All JZP-110): 1 | Upper respiratory tract infection, incidence % (All JZP-110): (2.8) % | Upper respiratory tract infection, incidence n (All JZP-110): 5 | Weight Increased, incidence % (All JZP-110): (1.7) % | Weight Increased, incidence n (All JZP-110): 3 | Weight decreased, incidence % (All JZP-110): (2.8) % | Weight decreased, incidence n (All JZP-110): 5
